Assay results: article PMC6847993 (Drug Design, Development and Therapy, 2019)

biological target: XLF (Homo sapiens, UniProt Q9H9Q4); assay: Thermoshift assay of XLF stability in cells; format: cell-based
Sequence (Q9H9Q4 whole entry): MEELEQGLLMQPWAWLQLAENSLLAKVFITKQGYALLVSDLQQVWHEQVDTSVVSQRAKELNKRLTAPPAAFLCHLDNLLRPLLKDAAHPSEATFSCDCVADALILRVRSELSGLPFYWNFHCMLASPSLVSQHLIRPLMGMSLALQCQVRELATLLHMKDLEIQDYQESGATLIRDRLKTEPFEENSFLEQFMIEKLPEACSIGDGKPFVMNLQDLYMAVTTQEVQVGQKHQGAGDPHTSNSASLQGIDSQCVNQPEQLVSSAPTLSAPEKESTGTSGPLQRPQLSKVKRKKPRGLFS

Interaction with XLF (XLF stability) | Compound
interacted with XLF | Oc1ccc(/C=C/c2cc(O)cc(O)c2)cc1 [resveratrol]
interacted with XLF | COc1cc(O)cc(CCc2ccc(O)c(OC)c2)c1 [Gigantol, gigantol]
interacted with XLF | CC[C@]1(O)C[C@H]2CN(CCc3c([nH]c4ccccc34)[C@@](C(=O)OC)(c3cc4c(cc3OC)N(C=O)[C@H]3[C@@](O)(C(=O)OC)[C@H](OC(C)=O)[C@]5(CC)C=CCN6CC[C@]43[C@@H]65)C2)C1 [vincristine]
